Measurements taken from patent publication US8160709B2, “Use of electrical stimulation of the lower esophageal sphincter to modulate lower esophageal sphincter pressure” (Endostim, Inc., priority 2006, dated 2012).
“Also recorded” adds a separate entry of the source. Marks after values point to notes of the source that are not given here.

Test system: lower esophageal sphincter
Assay: Lower esophageal sphincter pressure recording during NGES in anesthetized dogs, after L-NAME and atropine
Format: in vivo
Experimental: All recordings were performed one hour after consumption of three ounces of canned dog food to prevent fluctuations in lower esophageal sphincter pressure, and under mild sedation (acepromazine 0.5 mg/kg). During electrical stimulation days, tests consisted of three periods of 20 minutes each: […] Electrical stimulation was delivered using an external pulse generator. […] Area under the curve (“AUC”) and pressure were compared among the three periods. Data are shown as mean±SD, ANOVA and t-test, p<0.05. Three female mongrel dogs underwent continuous recording of lower esophageal sphincter pressure under anesthesia. NGES was delivered to the lower esophageal sphincter for 10 minutes at: […] Changes in lower esophageal sphincter pressure during NGES are presented as percent change from preceding baseline. Results (FIG. 6) are presented as mean±SD.

[1] = in words, anesthetized dogs, L-NAME 50 mg/kg, atropine 0.05 mg/kg in presence of L-NAME
[2] = in words, anesthetized dogs, L-NAME 50 mg/kg, atropine 0.05 mg/kg in presence of L-NAME, listed as atropine
[3] = LES pressure during NGES, percent change from preceding baseline, L-NAME 50 mg/kg, atropine 0.05 mg/kg in presence of L-NAME, mean (SD)
[4] = during NGES, L-NAME 50 mg/kg, atropine 0.05 mg/kg in presence of L-NAME, mean (SD)

Compound	Effect on (baseline) lower esophageal sphincter pressure [1]	Effect on initial rise in lower esophageal sphincter pressure induced by NGES [1]	Effect on (baseline) lower esophageal sphincter pressure [2]	Effect on initial rise in lower esophageal sphincter pressure induced by NGES [2]	Initial Peak (% change) [3]	Relaxation (% change) [3]	Lower Esophageal Sphincter Pressure Baseline (anesthetized female mongrel dogs, L-NAME infusion 50 mg/kg, atropine 0.05 mg/kg in the presence of L-NAME, mean (SD))	Peak Duration [4]	Relaxation Duration [4]	Effect on lower esophageal sphincter relaxation phase following NGES (in words, anesthetized dogs, L-NAME 50 mg/kg)
CN1[C@@H]2CC[C@H]1C[C@@H](OC(=O)C(CO)c1ccccc1)C2 (stereo partly drawn) [Atropine, atropine]	lowered	abolished	reduced	reduced	–	–	–	–	–	–
COC(=O)[C@@H](N)CCCNC(=N)N[N+](=O)[O-] [L-NAME]	increased	augmented; also recorded: enhanced	–	–	76 (48.6) % change	28.2 (34.1)** % change	35.7 (5.1)* mmHg	6.7 (3.9) sec	4.4 (3.8) sec	markedly diminished or abolished; also recorded: markedly suppressed
